Laboratory results reported in patent US8586593B2, “Insecticidal compounds” (Syngenta Crop Protection, Inc., priority 2009, dated 2013).

Legend:
Assay type in all cases: in vivo
Spodoptera littoralis = Spodoptera littoralis (Egyptian cotton leafworm) leaf disc spray test; conditions: foliar, 72 h, 200 ppm sprayed on cotton leaf discs, 5 L1 larvae, mortality, feeding behavior and growth regulation 3 days after treatment
Source text: Spodoptera littoralis (Egyptian Cotton Leafworm)
Cotton leaf discs were placed on agar in a 24-well microtiter plate and sprayed with test solutions at an application rate of 200 ppm. After drying, the leaf discs were infested with 5 L1 larvae. The samples were checked for mortality, feeding behavior, and growth regulation 3 days after treatment (DAT).

Heliothis virescens = Heliothis virescens (tobacco budworm) egg test on artificial diet; conditions: 96 h, 200 ppm (concentration in well 18 ppm), eggs 0-24 h old on artificial diet, egg mortality, larval mortality and growth regulation after 4 days
Description: Eggs (0-24 h old) were placed in 24-well microtiter plate on artificial diet and treated with test solutions at an application rate of 200 ppm (concentration in well 18 ppm) by pipetting. After an incubation period of 4 days, samples were checked for egg mortality, larval mortality, and growth regulation.

Plutella xylostella = Plutella xylostella (diamond back moth) larval test on artificial diet; conditions: 144 h, 200 ppm (concentration in well 18 ppm), L2 larvae, larval mortality and growth regulation after 6 days
Description: (§1) 24-well microtiter plate (MTP) with artificial diet was treated with test solutions at an application rate of 200 ppm (concentration in well 18 ppm) by pipetting. After drying, the MTP's were infested with L2 larvae (7-12 per well). After an incubation period of 6 days, samples were checked for larval mortality and growth regulation.

Diabrotica balteata = Diabrotica balteata (corn root worm) larval test on artificial diet; conditions: 120 h, 200 ppm (concentration in well 18 ppm), L2 larvae, larval mortality and growth regulation after 5 days
Description: as §1, with “A 24-well” for “24-well”, “with” for “with L2”, “(L2) (6-10” for “(7-12”, “5” for “6”, “mortality,” for “mortality”

Measured: pest or weed control at 200 ppm

O=C(Nc1ccc(C(F)(F)F)cc1C1CCN(Cc2ccc(-c3ncc(F)cn3)cc2)CC1)c1ccnc(Cl)c1 [Compound A2, 2-chloro-N-(2-{1-[4-(5-fluoro-pyrimidin-2-yl)-benzyl]-piperidin-4-yl}-4-trifluoromethyl-phenyl)-isonicotinamide]
≥ 80%: all assays above

O=C(Nc1ccc(F)cc1C1CCN(Cc2ccc(-c3ncc(Cl)cn3)cc2)CC1)c1ccnc(Cl)c1 [Compound A10, 2-chloro-N-(2-{1-[4-(5-chloro-pyrimidin-2-yl)-benzyl]-piperidin-4-yl}-4-fluoro-phenyl)-isonicotinamide]
≥ 80%: all assays above

O=C(Nc1cc(OC(F)(F)F)ccc1C1CCN(Cc2ccc(-c3ncc(Cl)cn3)cc2)CC1)c1ccnc(Cl)c1 [Compound A12, 2-chloro-N-(2-{1-[4-(5-chloro-pyrimidin-2-yl)-benzyl]-piperidin-4-yl}-5-trifluoromethoxy-phenyl)-isonicotinamide]
≥ 80%: all assays above

O=C(Nc1ccc(C(F)(F)F)nc1C1CCN(Cc2ccc(-c3ncc(Cl)cn3)cc2)CC1)c1ccnc(Cl)c1 [Compound B1, 2-chloro-N-{1′-[4-(5-chloro-pyrimidin-2-yl)-benzyl]-6-trifluoromethyl-1′,2′,3′,4′,5′,6′-hexahydro-[2,4′]bipyridinyl-3-yl}-isonicotinamide]
≥ 80%: all assays above

O=C(Nc1ccc(C(F)(F)F)nc1C1CCN(Cc2ccc(-c3ncc(F)cn3)cc2)CC1)c1ccnc(Cl)c1 [Compound B2, 2-chloro-N-{1′-[4-(5-fluoro-pyrimidin-2-yl)-benzyl]-6-trifluoromethyl-1′,2′,3′,4′,5′,6′-hexahydro-[2,4′]bipyridinyl-3-yl}-isonicotinamide]
≥ 80%: all assays above

O=C(Nc1ccc(OC(F)F)nc1C1CCN(Cc2ccc(-c3ncc(Cl)cn3)cc2)CC1)c1ccnc(Cl)c1 [Compound B6, 2-chloro-N-{1′-[4-(5-chloro-pyrimidin-2-yl)-benzyl]-6-difluoromethoxy-1′,2′,3′,4′,5′,6′-hexahydro-[2,4′]bipyridinyl-3-yl}-isonicotinamide]
≥ 80%: all assays above

O=C(Nc1c(F)cc(C(F)(F)F)nc1C1CCN(Cc2ccc(-c3ncc(Cl)cn3)cc2)CC1)c1ccnc(Cl)c1 [Compound B7, 2-chloro-N-{1′-[4-(5-chloro-pyrimidin-2-yl)-benzyl]-4-fluoro-6-trifluoromethyl-1′,2′,3′,4′,5′,6′-hexahydro-[2,4′]bipyridinyl-3-yl}-isonicotinamide]
≥ 80%: all assays above

O=C(Nc1ccc(C(F)(F)F)cc1C1CC[N+]([O-])(Cc2ccc(-c3ncc(Cl)cn3)cc2)CC1)c1ccnc(Cl)c1 (stereo not drawn) [Compound C1, 2-chloro-N-(2-{1-[4-(5-chloro-pyrimidin-2-yl)-benzyl]-1-oxy-piperidin-4-yl}-4-trifluoromethyl-phenyl)-isonicotinamide]
≥ 80%: all assays above

O=C(Nc1ccc(C(F)(F)F)cc1C1CCN(Cc2ccc(-c3ncc(Cl)cn3)cc2)CC1)c1ccnc(Cl)c1 [Compound E1, 2-chloro-N-(2-{1-[4-(5-chloro-pyrimidin-2-yl)-benzyl]-piperidin-4-yl}-4-trifluoromethyl-phenyl)-isonicotinamide acetate]
≥ 80%: Plutella xylostella

O=C(Nc1ccc(C(F)(F)F)cc1C1CCN(Cc2ccc(-c3ncc(Cl)cn3)cc2)CC1)c1ccnc(Cl)c1 [Compound E8]
≥ 80%: Spodoptera littoralis | Heliothis virescens | Diabrotica balteata
